Assay results as given in PubChem BioAssay AID2060493 (Molecular Pharmacology Branch, DTP, NCI, 2025).
pIC50: −log10 of the molar value. “And” between values parts separate entries of the source, which are not always exact repeats. Equal entries are not always repeated. Each block holds one molecule with its values, some of them ahead of it.

Tested on: 616215-338-R-J1-PDC tumor spheroids, viability
Assay: Anticancer human tumor 616215-338-R-J1-PDC patient-derived colon adenocarcinoma cell line growth inhibition [GQUAD]
Settings: spheroids with HUVEC and MSC; for viability, T/C: stronger effect = lower value
Source text: DNA G-quadruplex Stabilizer Agents in Combinations in Complex Spheroids
A high-throughput screen of multi-cell type tumor spheroids was designed to identify active combinations of DNA G-quadruplex stabilizer agents and targeted small molecules. Complex spheroids include a stromal component modeled by human endothelial cells (HUVEC) and fibroblasts modeled by human mesenchymal stem cells (MSCs). The concentration ranges selected for each drug and investigational agent were based upon clinically achievable concentrations if the clinical Cmax of the agent was known.
Compounds. The drugs and investigational agents: pidnarulex (CX-5461; NSC782164), APTO-253 (NSC789042), BRACO-19 (NSC847499), peposertib (NSC802822), ceralasertib (NSC780249), elimusertib (NSC800525), camonsertib (NSC841442), AZD-1390 (NSC803789), olaparib (NSC753686), talazoparib (NSC767125), ART-558 (NSC835418), sotorasib (NSC818433), MRTX-1133 (NSC836407), SN-38 (NSC673596), topotecan (NSC609699), etoposide (NSC141540), doxorubicin (NSC123127), gemcitabine (NSC613327), 5-fluorouracil (NSC19893), paclitaxel (NSC125973), vemurafenib (NSC761431), panobinostat (NSC761190), R-306465 (JNJ-16241199; NSC773264), adavosertib (NSC754352), TP-3654 (NSC805149), carboplatin (NSC241240), KSQ-4279 (NSC840948), and staurosporine (NSC755774) were obtained from the National Cancer Institute (NCI) Developmental Therapeutics Program Chemical Repository (34). The FDA-approved anticancer drug set is available from the NCI Developmental Therapeutics Program. […] The stock solutions were prepared in dimethyl sulfoxide (DMSO, Sigma-Aldrich, St. Louis, MO, cat. D2650) at 800-fold the tested concentration and stored at -70 degrees C prior to their use. All drugs and investigational agents were tested over a range starting from a high concentration at or near the clinical Cmax and decreasing in half-log increments. If the clinical Cmax for an agent had not been determined, the highest concentration tested was 10 microM.
2.3 Cell Culture. All cells were maintained in an incubator at 37 degrees C and 5% CO2 with 95% humidity. The PDC lines were cultured according to standard operating procedures established by the NCI PDMR. All PDCs were thawed and cultured in Matrigel-coated flasks prepared with a working solution of 1X Ham's F-12 nutrient mix, without supplementation (Invitrogen, cat. 11765054), 100 U/mL penicillin-streptomycin (Invitrogen, cat. 15140122), and 2.5% Matrigel (Corning Inc., cat. 354248) for the first three passages. The 857933-349-R-J2-PDC line was cultured in 6C/Colon 1B media, which includes advanced DMEM/F-12 (Thermo Fisher Scientific, cat. 12634028), 10 mM HEPES (Thermo Fisher Scientific, cat. 15630080), 1X GlutaMAX supplement (Thermo Fisher Scientific, cat. 35050061), 0.1 mg/mL primocin (InvivoGen, cat. ant-pm-2), 10% defined fetal bovine serum, heat inactivated (HyClone Laboratories Inc., cat. SH30070.03HI), 50% L-WRN conditioned media (ATCC, cat. CRL-3276), 1.25 mM N-Acetyl-L-cysteine (Sigma-Aldrich, cat. A9165), 10 mM nicotinamide (Sigma-Aldrich, cat. N0636), 1X B-27 supplement (Thermo Fisher Scientific, cat. 17504044), 1X N-2 supplement (Thermo Fisher Scientific, cat. 17502048), 10 microM Y-27632 dihydrochloride (Tocris Bioscience, cat. 1254), and 50 ng/mL human EGF recombinant protein (Thermo Fisher Scientific, cat. PHG0311). The 485176-168-R4-J1-PDC line was cultured in Panc media, which includes all 6C/Colon 1B media components plus 100 ng/mL human FGF-10 (Thermo Fisher Scientific, cat. 100-26), 500 nM SB-431542 (Selleckchem, cat. S1067), and gastrin (Tocris, cat. 3006).
[…]

[1] = curve of first compound, second compound 0.0316 µM
[2] = curve of first compound, second compound 0.1 µM
[3] = curve of first compound, second compound 0.316 µM
[4] = curve of first compound, second compound 1 µM
[5] = curve of first compound, second compound 3.16 µM
[6] = curve of first compound, second compound 10 µM
[7] = second compound 0.0316 µM, first compound 0.0316 µM
[8] = second compound 0.0316 µM, first compound 0.316 µM
[9] = second compound 0.1 µM, first compound 0.0316 µM
[10] = second compound 0.1 µM, first compound 0.316 µM
[11] = second compound 0.316 µM, first compound 0.0316 µM
[12] = second compound 0.316 µM, first compound 0.316 µM
[13] = second compound 1 µM, first compound 0.0316 µM
[14] = second compound 1 µM, first compound 0.316 µM
[15] = second compound 3.16 µM, first compound 0.0316 µM
[16] = second compound 3.16 µM, first compound 0.316 µM
[17] = second compound 10 µM, first compound 0.0316 µM
[18] = second compound 10 µM, first compound 0.316 µM
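Also: spheroids exposed to agents for 7 days before readout.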
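For viability, T/C in this document: percent viability relative to DMSO vehicle control wells taken as 100%.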

SMILES: CC[C@@]1(O)C(=O)OCc2c1cc1n(c2=O)Cc2cc3c(CN(C)C)c(O)ccc3nc2-1 + CN(C)c1ccc(Nc2c3ccc(NC(=O)CCN4CCCC4)cc3nc3cc(NC(=O)CCN4CCCC4)ccc23)cc1
pIC50 [1]: 6.55
pIC50 [2]: 6.60
pIC50 [3]: 6.64
pIC50 [4]: 6.57
pIC50 [5]: 6.58
pIC50 [6]: 6.74
viability, T/C (second compound 0.0316 µM, first compound 0.000999 µM): 97.5%
viability, T/C (second compound 0.0316 µM, first compound 0.00316 µM): 98.9%
viability, T/C (second compound 0.0316 µM, first compound 0.00999 µM): 98%
viability, T/C [7]: 105%
viability, T/C (second compound 0.0316 µM, first compound 0.0999 µM): 87.9%
viability, T/C [8]: 45.9%
viability, T/C (second compound 0.1 µM, first compound 0.000999 µM): 93.5%
viability, T/C (second compound 0.1 µM, first compound 0.00316 µM): 101%
viability, T/C (second compound 0.1 µM, first compound 0.00999 µM): 101%
viability, T/C [9]: 101%
viability, T/C (second compound 0.1 µM, first compound 0.0999 µM): 87.2%
viability, T/C [10]: 40.5%
viability, T/C (second compound 0.316 µM, first compound 0.000999 µM): 113%
viability, T/C (second compound 0.316 µM, first compound 0.00316 µM): 94.5%
viability, T/C (second compound 0.316 µM, first compound 0.00999 µM): 98.5%
viability, T/C [11]: 105%
viability, T/C (second compound 0.316 µM, first compound 0.0999 µM): 85.2%
viability, T/C [12]: 36.4%
viability, T/C (second compound 1 µM, first compound 0.000999 µM): 105%
viability, T/C (second compound 1 µM, first compound 0.00316 µM): 100%
viability, T/C (second compound 1 µM, first compound 0.00999 µM): 96.2%
viability, T/C [13]: 101%
viability, T/C (second compound 1 µM, first compound 0.0999 µM): 87.4%
viability, T/C [14]: 44.1%
viability, T/C (second compound 3.16 µM, first compound 0.000999 µM): 97.9%
viability, T/C (second compound 3.16 µM, first compound 0.00316 µM): 86.8%
viability, T/C (second compound 3.16 µM, first compound 0.00999 µM): 96.7%
viability, T/C [15]: 95.2%
viability, T/C (second compound 3.16 µM, first compound 0.0999 µM): 93.1%
viability, T/C [16]: 41.8%
viability, T/C (second compound 10 µM, first compound 0.000999 µM): 90.2%
viability, T/C (second compound 10 µM, first compound 0.00316 µM): 91%
viability, T/C (second compound 10 µM, first compound 0.00999 µM): 95.8%
viability, T/C [17]: 85.3%
viability, T/C (second compound 10 µM, first compound 0.0999 µM): 74.5%
viability, T/C [18]: 28.1%

pIC50 (curve of compound): < 5.00
SMILES: O=C(c1cc(Cc2n[nH]c(=O)c3ccccc23)ccc1F)N1CCN(C(=O)C2CC2)CC1
viability, T/C (compound 0.0316 µM): 96.6% and 106% and 92.3%
viability, T/C (compound 0.1 µM): 105% and 99.2% and 101%
viability, T/C (compound 0.316 µM): 98.7% and 104% and 96.1%
viability, T/C (compound 1 µM): 96.9% and 105% and 96.2%
viability, T/C (compound 3.16 µM): 102% and 105% and 98.3%
viability, T/C (compound 10 µM): 67.2% and 66.3% and 73.1%

pIC50 (curve of compound): < 5.00
SMILES: CC(C)n1c(=O)n(C)c2cnc3cc(F)c(-c4ccc(OCCCN5CCCCC5)nc4)cc3c21
viability, T/C (compound 0.0316 µM): 107% and 104% and 97.4%
viability, T/C (compound 0.1 µM): 99% and 102% and 91.9%
viability, T/C (compound 0.316 µM): 106% and 98.5% and 96.9%
viability, T/C (compound 1 µM): 110% and 101% and 92.8%
viability, T/C (compound 3.16 µM): 106% and 110% and 105%
viability, T/C (compound 10 µM): 53% and 94.7% and 96.5%

SMILES: O=C(c1cc(Cc2n[nH]c(=O)c3ccccc23)ccc1F)N1CCN(C(=O)C2CC2)CC1 + Cc1[nH]c2ccc(F)cc2c1-c1nc2c3cccnc3c3ncccc3c2[nH]1
pIC50 [1]: < 5.00
pIC50 [2]: < 5.00
pIC50 [3]: < 5.00
pIC50 [4]: < 5.00
pIC50 [5]: < 5.00
pIC50 [6]: < 5.00
viability, T/C [7]: 99.5%
viability, T/C (second compound 0.0316 µM, first compound 0.1 µM): 97%
viability, T/C [8]: 107%
viability, T/C (second compound 0.0316 µM, first compound 1 µM): 101%
viability, T/C (second compound 0.0316 µM, first compound 3.16 µM): 98.6%
viability, T/C (second compound 0.0316 µM, first compound 10 µM): 74.2%
viability, T/C [9]: 102%
viability, T/C (second compound 0.1 µM, first compound 0.1 µM): 100%
viability, T/C [10]: 93.8%
viability, T/C (second compound 0.1 µM, first compound 1 µM): 102%
viability, T/C (second compound 0.1 µM, first compound 3.16 µM): 105%
viability, T/C (second compound 0.1 µM, first compound 10 µM): 72.3%
viability, T/C [11]: 93.9%
viability, T/C (second compound 0.316 µM, first compound 0.1 µM): 105%
viability, T/C [12]: 98.9%
viability, T/C (second compound 0.316 µM, first compound 1 µM): 100%
viability, T/C (second compound 0.316 µM, first compound 3.16 µM): 104%
viability, T/C (second compound 0.316 µM, first compound 10 µM): 73.7%
viability, T/C [13]: 98.8%
viability, T/C (second compound 1 µM, first compound 0.1 µM): 95.1%
viability, T/C [14]: 104%
viability, T/C (second compound 1 µM, first compound 1 µM): 107%
viability, T/C (second compound 1 µM, first compound 3.16 µM): 85.9%
viability, T/C (second compound 1 µM, first compound 10 µM): 53.4%
viability, T/C [15]: 99.5%
viability, T/C (second compound 3.16 µM, first compound 0.1 µM): 105%
viability, T/C [16]: 95%
viability, T/C (second compound 3.16 µM, first compound 1 µM): 96.8%
viability, T/C (second compound 3.16 µM, first compound 3.16 µM): 110%
viability, T/C (second compound 3.16 µM, first compound 10 µM): 67.2%
viability, T/C [17]: 96.5%
viability, T/C (second compound 10 µM, first compound 0.1 µM): 87.6%
viability, T/C [18]: 98.2%
viability, T/C (second compound 10 µM, first compound 1 µM): 84.3%
viability, T/C (second compound 10 µM, first compound 3.16 µM): 91.3%
viability, T/C (second compound 10 µM, first compound 10 µM): 52%
